Laboratory results from the NIST ThermoML archive (doi:10.1007/s10765-011-1087-7).

Assays:
[1] = xn = mol fraction of the nth substance listed; settings: 308.15 K, 101 kPa, Liquid; for speed of sound: Pulse-echo method
[2] = refractive index (Na D-line) (dimensionless); xn = mol fraction of the nth substance listed; settings: 101 kPa, Liquid

CCCCCCC(C)O (centres undefined) [2-octanol] + Clc1ccccc1Cl
[1]
Settings | mass density [kg/m3] | speed of sound [m/s] | viscosity [mPa·s]
x2 = 0.0721 | 833.8 | 1266.6 | 3.524
x2 = 0.1124 | 848.27 | 1264 | 3.227
x2 = 0.1868 | 875.95 | 1260.1 | 2.763
x2 = 0.2615 | 905.03 | 1256.2 | 2.38
x2 = 0.3223 | 929.69 | 1253.3 | 2.121
x2 = 0.3758 | 952.17 | 1250.8 | 1.933
x2 = 0.4495 | 984.42 | 1247.6 | 1.7
x2 = 0.512 | 1013.02 | 1245.4 | 1.532
x2 = 0.5923 | 1051.57 | 1242.9 | 1.362
x2 = 0.6557 | 1083.59 | 1241.5 | 1.243
x2 = 0.7312 | 1123.75 | 1240.5 | 1.157
x2 = 0.797 | 1160.72 | 1240.4 | 1.132
x2 = 0.8672 | 1202.46 | 1241.5 | 1.133
x2 = 0.9481 | 1253.92 | 1243.9 | 1.14

refractive index, [2]
Settings | 298.15 K | 303.15 K | 308.15 K
x2 = 0.0721 | 1.4308 | 1.4293 | 1.4274
x2 = 0.1124 | 1.4352 | 1.4336 | 1.4319
x2 = 0.1868 | 1.443 | 1.4416 | 1.4399
x2 = 0.2615 | 1.4507 | 1.4492 | 1.4476
x2 = 0.3223 | 1.4569 | 1.4552 | 1.4534
x2 = 0.3758 | 1.4624 | 1.4604 | 1.4587
x2 = 0.4495 | 1.4698 | 1.4678 | 1.4658
x2 = 0.512 | 1.4763 | 1.4741 | 1.4718
x2 = 0.5923 | 1.4848 | 1.4828 | 1.48
x2 = 0.6557 | 1.492 | 1.4902 | 1.4873
x2 = 0.7312 | 1.5014 | 1.4997 | 1.4967
x2 = 0.797 | 1.5103 | 1.509 | 1.5059
x2 = 0.8672 | 1.521 | 1.52 | 1.5168
x2 = 0.9481 | 1.5353 | 1.5342 | 1.531
